# Where two headings read alike, the source gives them in different places.
# Tests used:
# MLK1/MAP3K9 = target: T1, MLK1/MAP3K9 (Homo sapiens, UniProt P80192); experiment: Radiolabeled ATP kinase assay (Reaction Biology Corp.), MLK1; assay type: biochemical; settings: [Cmpd] 0.1 μM, 10 μM ATP
# T1 construct: purchased Reaction Biology Corp
# Description: (§1) Meanwhile, the same analogs were analyzed in a radiolabeled ATP assay (10 μM ATP; Reaction Biology Corp.) to compare the extent to which they could inhibit the activity of HGK, MLK1, or MLK3 in a cell-free environment (Table S3 and S4).
# MLK3/MAP3K11 = target: T2, MLK3/MAP3K11 (Homo sapiens, UniProt Q16584); experiment: Radiolabeled ATP kinase assay (Reaction Biology Corp.), MLK3; assay type: biochemical; settings: [Cmpd] 0.1 μM; 10 μM ATP
# T2 construct: purchased Reaction Biology Corp
# T2 sequence (Q16584 whole entry): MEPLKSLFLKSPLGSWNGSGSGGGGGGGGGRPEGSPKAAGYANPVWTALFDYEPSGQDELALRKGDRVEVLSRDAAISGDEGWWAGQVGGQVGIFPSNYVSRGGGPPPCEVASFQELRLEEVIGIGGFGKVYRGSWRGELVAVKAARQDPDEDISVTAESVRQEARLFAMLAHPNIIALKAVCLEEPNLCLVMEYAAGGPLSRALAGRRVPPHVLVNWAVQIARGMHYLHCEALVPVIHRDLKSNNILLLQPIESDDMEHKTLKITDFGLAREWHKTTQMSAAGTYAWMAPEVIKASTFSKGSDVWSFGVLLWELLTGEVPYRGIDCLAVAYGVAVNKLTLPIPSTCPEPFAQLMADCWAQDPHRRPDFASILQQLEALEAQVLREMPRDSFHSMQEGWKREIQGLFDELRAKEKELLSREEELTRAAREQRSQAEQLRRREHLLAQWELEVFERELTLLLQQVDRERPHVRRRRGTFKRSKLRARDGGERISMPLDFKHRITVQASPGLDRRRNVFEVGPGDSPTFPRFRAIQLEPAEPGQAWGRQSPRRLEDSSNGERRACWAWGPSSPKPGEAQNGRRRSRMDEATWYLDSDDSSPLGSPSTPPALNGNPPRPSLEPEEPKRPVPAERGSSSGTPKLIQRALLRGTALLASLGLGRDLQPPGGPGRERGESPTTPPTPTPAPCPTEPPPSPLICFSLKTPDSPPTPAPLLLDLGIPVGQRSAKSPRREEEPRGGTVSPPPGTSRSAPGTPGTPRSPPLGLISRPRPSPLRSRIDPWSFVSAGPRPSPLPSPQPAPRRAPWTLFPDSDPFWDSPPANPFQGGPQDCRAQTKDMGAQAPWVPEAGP
# Description: as §1
# [1] = system: human ES motor neurons carrying the ALS-causing SOD1^A4V mutation; experiment: cells; assay type: cell-based; settings: 72 h; for EC50 / Emax: CPA 33 μM; for viability at 1 µM: CPA (33 μM) + compound (1 μM), read-out: Motor Neuron Survival, % untreated; for Emax: read-out: Emax (MN survival % untreated)
# Description: Next, survival assays were performed with all the analogs at once to generate a low-variability dataset. All compounds were evaluated at concentrations ranging from 0.1-3.0 μM (five-point dilution) in three technical replicates and two biological replicates.
# HGK/MAP4K4 = HGK/MAP4K4 (Homo sapiens, UniProt O95819); experiment: Radiolabeled ATP kinase assay (Reaction Biology Corp.), HGK; assay type: biochemical; design: purchased Reaction Biology Corp; settings: 10 μM ATP, read-out: % Enzyme Activity (relative to DMSO controls), HGK/MAP4K4, Data 1; for remaining activity at 0.025 µM: [Cmpd] 0.025 μM; for remaining activity at 0.1 µM: [Cmpd] 0.1 μM
# HGK/MAP4K4, sequence (O95819 whole entry): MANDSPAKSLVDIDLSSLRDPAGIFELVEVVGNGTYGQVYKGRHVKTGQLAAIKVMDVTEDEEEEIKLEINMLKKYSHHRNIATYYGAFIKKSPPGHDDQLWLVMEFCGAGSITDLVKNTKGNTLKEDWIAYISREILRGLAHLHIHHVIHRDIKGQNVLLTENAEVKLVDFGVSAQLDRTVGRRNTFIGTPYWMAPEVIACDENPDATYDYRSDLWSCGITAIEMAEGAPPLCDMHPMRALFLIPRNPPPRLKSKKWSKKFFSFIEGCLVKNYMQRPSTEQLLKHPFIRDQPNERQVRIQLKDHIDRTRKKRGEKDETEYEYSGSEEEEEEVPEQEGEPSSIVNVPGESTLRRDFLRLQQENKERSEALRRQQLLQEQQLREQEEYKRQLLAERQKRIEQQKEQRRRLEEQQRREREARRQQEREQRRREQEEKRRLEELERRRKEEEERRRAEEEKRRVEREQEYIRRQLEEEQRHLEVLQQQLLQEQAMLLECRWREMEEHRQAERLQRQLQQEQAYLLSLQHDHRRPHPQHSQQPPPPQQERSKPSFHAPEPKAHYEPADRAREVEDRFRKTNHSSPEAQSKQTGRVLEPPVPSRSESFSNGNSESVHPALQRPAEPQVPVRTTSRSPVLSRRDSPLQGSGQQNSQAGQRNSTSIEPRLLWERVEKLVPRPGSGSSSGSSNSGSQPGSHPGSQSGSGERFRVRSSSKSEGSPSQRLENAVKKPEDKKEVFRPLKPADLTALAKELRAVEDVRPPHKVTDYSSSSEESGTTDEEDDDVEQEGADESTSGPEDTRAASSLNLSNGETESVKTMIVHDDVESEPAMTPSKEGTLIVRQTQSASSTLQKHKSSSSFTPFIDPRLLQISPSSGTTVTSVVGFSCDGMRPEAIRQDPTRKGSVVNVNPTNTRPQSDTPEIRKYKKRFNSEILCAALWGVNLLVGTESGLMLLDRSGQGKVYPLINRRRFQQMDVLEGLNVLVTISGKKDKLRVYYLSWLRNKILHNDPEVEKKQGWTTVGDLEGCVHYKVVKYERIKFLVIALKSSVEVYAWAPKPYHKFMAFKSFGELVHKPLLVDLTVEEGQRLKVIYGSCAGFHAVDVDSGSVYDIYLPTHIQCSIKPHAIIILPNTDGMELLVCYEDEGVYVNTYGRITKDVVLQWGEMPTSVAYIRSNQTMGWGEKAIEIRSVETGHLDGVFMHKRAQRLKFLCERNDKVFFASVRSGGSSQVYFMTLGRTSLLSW
# Description: as §1
# [2] = read-out: % Enzyme Activity Remaining (relative to DMSO controls), MLK1/MAP3K9, Data 1
# [3] = read-out: % Enzyme Activity Remaining (relative to DMSO controls), MLK1/MAP3K9, Data 2
# [4] = Homo sapiens, Neuron, read-out: EC50
# T1 sequence (P80192 whole entry): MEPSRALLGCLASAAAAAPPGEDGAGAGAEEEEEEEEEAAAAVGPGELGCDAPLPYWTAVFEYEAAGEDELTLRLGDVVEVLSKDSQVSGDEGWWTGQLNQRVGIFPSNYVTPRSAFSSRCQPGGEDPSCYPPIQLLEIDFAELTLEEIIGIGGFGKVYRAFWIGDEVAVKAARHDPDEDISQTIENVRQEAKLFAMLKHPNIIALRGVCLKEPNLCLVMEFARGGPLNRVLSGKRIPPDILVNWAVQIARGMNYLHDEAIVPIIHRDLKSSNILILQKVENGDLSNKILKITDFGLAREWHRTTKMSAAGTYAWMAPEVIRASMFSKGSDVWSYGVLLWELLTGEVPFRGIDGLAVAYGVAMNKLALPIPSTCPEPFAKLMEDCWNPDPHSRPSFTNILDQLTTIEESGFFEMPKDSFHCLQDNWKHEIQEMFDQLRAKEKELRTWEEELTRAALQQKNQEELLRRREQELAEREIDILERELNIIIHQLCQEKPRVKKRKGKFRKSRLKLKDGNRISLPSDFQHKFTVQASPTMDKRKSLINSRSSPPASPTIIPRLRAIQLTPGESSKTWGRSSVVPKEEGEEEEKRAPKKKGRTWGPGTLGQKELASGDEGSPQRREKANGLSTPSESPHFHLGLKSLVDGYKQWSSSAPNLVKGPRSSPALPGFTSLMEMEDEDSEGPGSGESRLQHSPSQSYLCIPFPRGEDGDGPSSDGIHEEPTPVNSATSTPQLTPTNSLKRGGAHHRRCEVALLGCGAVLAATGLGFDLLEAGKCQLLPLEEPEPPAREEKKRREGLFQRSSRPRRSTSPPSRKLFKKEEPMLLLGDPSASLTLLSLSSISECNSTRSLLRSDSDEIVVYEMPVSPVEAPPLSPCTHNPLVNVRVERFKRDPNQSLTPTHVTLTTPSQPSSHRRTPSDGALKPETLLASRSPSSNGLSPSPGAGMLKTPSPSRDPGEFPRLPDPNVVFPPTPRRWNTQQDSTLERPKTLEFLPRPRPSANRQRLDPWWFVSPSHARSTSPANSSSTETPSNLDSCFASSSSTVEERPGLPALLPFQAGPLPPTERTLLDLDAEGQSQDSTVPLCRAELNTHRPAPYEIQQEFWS
Compound,remaining activity at 0.1 µM (MLK1/MAP3K9; [2]) [%],remaining activity at 0.1 µM (MLK1/MAP3K9; [3]) [%],"% Enzyme Activity Remaining (relative to DMSO controls), MLK3/MAP3K11, Data 1 (MLK3/MAP3K11) [%]","% Enzyme Activity Remaining (relative to DMSO controls), MLK3/MAP3K11, Data 2 (MLK3/MAP3K11) [%]",EC50 [1],"viability at 1 µM ([1]; Homo sapiens, Neuron) [%]","Emax ([1]; Homo sapiens, Neuron) [%]",remaining activity at 0.025 µM (HGK/MAP4K4) [%],remaining activity at 0.1 µM (HGK/MAP4K4) [%],"EC50 [1, 4] [µM]"
"COc1ccc(COc2ccc(-c3c[nH]c4ncc(-c5ccc(CN6CCN(C)CC6)cc5)cc34)cc2)cc1 [Compound 7ao, 3-(4-((4-Methoxybenzyl)oxy)phenyl)-5-(4-((4-methylpiperazin-1-yl)methyl)phenyl)-1H-pyrrolo[2,3-b]pyridine]",49,47.1,35.75,32.77,Ambiguous,95.9,95.9,21.3,1.98,
"CN1CCN(Cc2ccc(-c3cnc4[nH]cc(-c5ccc(C#N)cc5)c4c3)cc2)CC1 [Compound 7o, 4-(5-(4-((4-Methylpiperazin-1-yl)methyl)phenyl)-1H-pyrrolo[2,3-b]pyridin-3-yl)benzonitrile]",93.4,90.7,90.12,92.65,,49.7,68.6,58.9,29.3,0.775
"CN1CCN(Cc2ccc(-c3cnc4[nH]cc(-c5ccc(S(C)(=O)=O)nc5)c4c3)cc2)CC1 [Compound 7u, 5-(4-((4-Methylpiperazin-1-yl)methyl)phenyl)-3-(6-(methylsulfonyl)pyridin-3-yl)-1H-pyrrolo[2,3-b]pyridine]",93.9,95.9,92.02,90.70,,33,72.9,92.9,52.3,4.6
"CN1CCN(Cc2ccc(-c3cnc4[nH]cc(-c5ccc(CN6CCOCC6)s5)c4c3)cc2)CC1 [Compound 7t, 4-((5-(5-(4-((4-Methylpiperazin-1-yl)methyl)phenyl)-1H-pyrrolo[2,3-b]pyridin-3-yl)thiophen-2-yl)methyl)morpholine]",82.1,80,83.49,78.30,,43.6,77.3,74.3,33.4,1.38
"CN1CCN(Cc2ccc(-c3cnc4[nH]cc(-c5cccc([N+](=O)[O-])c5)c4c3)cc2)CC1 [Compound 7p, 5-(4-((4-Methylpiperazin-1-yl)methyl)phenyl)-3-(3-nitrophenyl)-1H-pyrrolo[2,3-b]pyridine]",62.7,62.9,40.84,42.08,,116,131,3.92,1.56,0.293
"CN1CCN(Cc2ccc(-c3cnc4[nH]cc(-c5ccc6[nH]ncc6c5)c4c3)cc2)CC1 [Compound 7v, 5-(5-(4-((4-Methylpiperazin-1-yl)methyl)phenyl)-1H-pyrrolo[2,3-b]pyridin-3-yl)-1H-indazole]",43,44,33.57,32.45,,115,128,13.8,2.9,0.143
"CN1CCN(Cc2ccc(-c3cnc4[nH]cc(-c5cnc(N)nc5)c4c3)cc2)CC1 [Compound 7k, 5-(5-(4-((4-Methylpiperazin-1-yl)methyl)phenyl)-1H-pyrrolo[2,3-b]pyridin-3-yl)pyrimidin-2-amine]",69,70.8,71.64,75.32,,71,71,48.3,16.5,0.316
"CN1CCN(Cc2ccc(-c3cnc4[nH]cc(-c5csc6ccccc56)c4c3)cc2)CC1 [Compound 7f, 3-(Benzo[b]thiophen-3-yl)-5-(4-((4-methylpiperazin-1-yl)methyl)phenyl)-1H-pyrrolo[2,3-b]pyridine]",81.1,76.5,68.84,73.51,,68.3,68.3,23.2,4.89,0.338
"CN1CCN(Cc2ccc(-c3cnc4[nH]cc(-c5ccc(N)nc5)c4c3)cc2)CC1 [Compound 7m, 5-(5-(4-((4-Methylpiperazin-1-yl)methyl)phenyl)-1H-pyrrolo[2,3-b]pyridin-3-yl)pyridin-2-amine]",96.7,96.3,67.62,67.85,,76.1,76.1,38.4,10.8,0.213
"C[C@@H](NC(=O)Nc1cccc(-c2c[nH]c3ncc(-c4ccc(CN5CCN(C)CC5)cc4)cc23)c1)c1ccccc1 [Compound 7ax, (R)-1-(3-(5-(4-((4-methylpiperazin-1-yl)methyl)phenyl)-1H-pyrrolo[2,3-b]pyridin-3-yl)phenyl)-3-(1-phenylethyl)urea]",93.5,92.3,90.99,86.58,,17.4,35.5,93.6,78.7,1.44
"CN1CCN(Cc2ccc(-c3cnc4[nH]cc(-c5cccc(C(F)(F)F)c5)c4c3)cc2)CC1 [Compound 7ab, 5-(4-((4-Methylpiperazin-1-yl)methyl)phenyl)-3-(3-(trifluoromethyl)phenyl)-1H-pyrrolo[2,3-b]pyridine]",83.7,82.9,68.47,70.51,,60.7,60.7,26.6,4.65,1.28
"CN1CCN(Cc2ccc(-c3cnc4[nH]cc(-c5ccc(Cl)cc5Cl)c4c3)cc2)CC1 [Compound 7ae, 3-(2,4-Dichlorophenyl)-5-(4-((4-methylpiperazin-1-yl)methyl)phenyl)-1H-pyrrolo[2,3-b]pyridine]",92.5,91.8,84.17,86.93,,32,32,67.9,42.7,0.533
